Earlier results as cited in article PMC3993928 (Journal of Medicinal Chemistry, 2014).

How the values were obtained:
[1] = test system: C57BL/6 mice; conditions: mouse WWTW
[2] = target: T1, μ opioid receptor (MOPr) (Rattus norvegicus, UniProt P33535); conditions: read-out: EC50 (nM), MOPr; [35S]GTPγS binding
[3] = target: T2, κ opioid receptor (KOPr) (Homo sapiens, UniProt P41145); conditions: read-out: Ki (nM) KOPr; [3H]diprenorphine displacement
[4] = target: T2, κ opioid receptor (KOPr); conditions: relative to U69,593 at 10 μM; dns = does not stimulate
[5] = target: T1, μ opioid receptor (MOPr); conditions: read-out: Ki (nM) MOPr; [3H]diprenorphine displacement
[6] = target: T3, δ opioid receptor (DOPr) (Rattus norvegicus, UniProt P33533); conditions: relative to DPDPE at 10 μM; dns = does not stimulate
T3 sequence (P33533 whole entry): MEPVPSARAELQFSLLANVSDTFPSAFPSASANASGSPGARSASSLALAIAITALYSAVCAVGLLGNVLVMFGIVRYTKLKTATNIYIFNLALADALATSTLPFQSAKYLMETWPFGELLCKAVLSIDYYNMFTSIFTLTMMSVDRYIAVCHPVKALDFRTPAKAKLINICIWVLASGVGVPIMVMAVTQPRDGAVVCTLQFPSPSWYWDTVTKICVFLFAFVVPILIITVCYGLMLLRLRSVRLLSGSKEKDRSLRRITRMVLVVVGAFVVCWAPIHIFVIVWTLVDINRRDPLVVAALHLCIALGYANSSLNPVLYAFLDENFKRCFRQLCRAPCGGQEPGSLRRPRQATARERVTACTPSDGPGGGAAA

[7] = target: T3, δ opioid receptor (DOPr); conditions: read-out: Ki (nM) DOPr; [3H]diprenorphine displacement

T2 sequence (P41145 whole entry): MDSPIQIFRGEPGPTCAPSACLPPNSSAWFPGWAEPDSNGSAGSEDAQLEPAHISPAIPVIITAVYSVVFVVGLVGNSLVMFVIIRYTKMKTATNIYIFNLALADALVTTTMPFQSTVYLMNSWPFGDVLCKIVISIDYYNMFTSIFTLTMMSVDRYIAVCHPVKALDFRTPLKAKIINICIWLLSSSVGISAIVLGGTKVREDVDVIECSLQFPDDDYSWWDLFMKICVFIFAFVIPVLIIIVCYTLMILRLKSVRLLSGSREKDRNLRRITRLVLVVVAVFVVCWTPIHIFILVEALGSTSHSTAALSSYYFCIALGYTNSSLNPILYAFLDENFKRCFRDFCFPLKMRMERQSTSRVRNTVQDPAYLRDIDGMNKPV
T1 sequence (P33535 whole entry): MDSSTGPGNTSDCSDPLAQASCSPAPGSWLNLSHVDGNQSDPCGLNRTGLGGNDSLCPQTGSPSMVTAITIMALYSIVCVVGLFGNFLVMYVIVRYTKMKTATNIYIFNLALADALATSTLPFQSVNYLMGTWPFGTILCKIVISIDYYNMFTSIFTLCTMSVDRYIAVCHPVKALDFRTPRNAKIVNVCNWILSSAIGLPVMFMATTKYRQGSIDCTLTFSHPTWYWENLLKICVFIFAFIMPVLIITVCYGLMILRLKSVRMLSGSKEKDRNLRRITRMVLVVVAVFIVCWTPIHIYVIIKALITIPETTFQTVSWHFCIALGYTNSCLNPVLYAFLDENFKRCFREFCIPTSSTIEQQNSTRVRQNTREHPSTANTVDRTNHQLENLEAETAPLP

| Molecule | duration of antinociceptive action relative to 4 (fold longer) [1] | EC50 [2] [nM] | Ki [3] [nM] | efficacy (% of control), KOPr [4] | Ki [5] [nM] | efficacy (% of control), DOPr [6] | Ki [7] [nM] |
| --- | --- | --- | --- | --- | --- | --- | --- |
| CN1CC[C@]23c4c5ccc(O)c4O[C@H]2[C@@H](O)C=C[C@H]3[C@H]1C5 [morphine] | approximately 2 fold | – | – | – | – | – | – |
| Dmt-c(SEtS)[DCys-Aci-DPen]OH [compound 1] | – | 4.7 ± 0.7 | 776 ± 149 | dns | 2.4 ± 0.7 | dns | 2.3 ± 0.5 |
